In ChEMBL document CHEMBL1201862, “PubChem BioAssay data set” (2004):
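Dose response: 5 concentrations. Exposure: 48 h. Format: 96-well plates. Endpoint: linear interpolation; highest concentration if not reached. GI50 marks 50% less growth.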 Active and inactive are the calls of the source. No stated cut-off is given here; in the data, active = GI50 up to about 1.1 µM and inactive = higher. Peptide text beside a SMILES is read from it. * marks the point of attachment. Trt = c1ccc(C(c2ccccc2)(c2ccccc2)*)cc1; Cbz = O=C(OCc1ccccc1)*

Assays:
Assay in all cases: NCI tumour cell line growth inhibition, 48 h
[1] = system: NCI-H460
[2] = system: UACC-257
[3] = system: HT-29
[4] = system: CCRF-CEM
[5] = system: SF-539
[6] = system: OVCAR-8
[7] = system: MCF7
[8] = system: EKVX
[9] = system: HOP-92
[10] = system: MDA-MB-435
[11] = system: SK-MEL-2
[12] = system: OVCAR-5
[13] = system: M14
[14] = system: K562
[15] = system: Hs-578T
[16] = system: NCI/ADR-RES
[17] = system: SF-268
[18] = system: BT-549
[19] = system: HOP-62

| SMILES | GI50 [1] | GI50 [2] | GI50 [3] | GI50 [4] | GI50 [5] | GI50 [6] | GI50 [7] | GI50 [8] | GI50 [9] | GI50 [10] | GI50 [11] | GI50 [12] | GI50 [13] | GI50 [14] | GI50 [15] | GI50 [16] | GI50 [17] | GI50 [18] | GI50 [19] |
| --- | --- | --- | --- | --- | --- | --- | --- | --- | --- | --- | --- | --- | --- | --- | --- | --- | --- | --- | --- |
| CC(=O)c1cnc2oc3ccc(O)cc3c2c1-c1ccccc1 | 33.5 µM (inactive) | 65.2 µM (inactive) | 95.5 µM (inactive) | 45 µM (inactive) | 15 µM (inactive) | 29.4 µM (inactive) | 48.2 µM (inactive) | 23.9 µM (inactive) | 18.3 µM (inactive) | 64.9 µM (inactive) | 22.6 µM (inactive) | 71.6 µM (inactive) | > 100 µM (inactive) | 41.6 µM (inactive) | 14.2 µM (inactive) | – | – | – | – |
| OC12COc3ccccc3C1Oc1ccccc1C2 (configuration not stated) | – | > 100 µM (inactive) | > 100 µM (inactive) | > 100 µM (inactive) | > 100 µM (inactive) | > 100 µM (inactive) | > 100 µM (inactive) | > 100 µM (inactive) | > 100 µM (inactive) | > 100 µM (inactive) | > 100 µM (inactive) | > 100 µM (inactive) | > 100 µM (inactive) | > 100 µM (inactive) | – | > 100 µM (inactive) | > 100 µM (inactive) | > 100 µM (inactive) | > 100 µM (inactive) |
| CCCCN(CCCC)CCC(O)c1cc2c(Cl)cc(Cl)cc2c2cc(C(F)(F)F)ccc12 (configuration not stated) | 10.3 µM (inactive) | 14.5 µM (inactive) | 13.6 µM (inactive) | 11.2 µM (inactive) | 9.4 µM (inactive) | 14.3 µM (inactive) | 10.2 µM (inactive) | 14.5 µM (inactive) | 1.32 µM (inactive) | 12.6 µM (inactive) | 16.1 µM (inactive) | 12.9 µM (inactive) | 8.93 µM (inactive) | 6.73 µM (inactive) | – | 12.1 µM (inactive) | 11.7 µM (inactive) | – | 10 µM (inactive) |
| CSC1=NS(=O)(=O)c2cc(C(=O)NN(C)C(=O)c3cc4c(cc3Cl)SC(SC)=NS4(=O)=O)c(Cl)cc2S1 | > 10 µM (inactive) | > 10 µM (inactive) | > 10 µM (inactive) | > 10 µM (inactive) | > 10 µM (inactive) | > 10 µM (inactive) | 9.75 µM (inactive) | > 10 µM (inactive) | > 10 µM (inactive) | – | > 10 µM (inactive) | > 10 µM (inactive) | > 10 µM (inactive) | > 10 µM (inactive) | > 10 µM (inactive) | > 10 µM (inactive) | > 10 µM (inactive) | > 10 µM (inactive) | > 10 µM (inactive) |
| CCOC(=O)N(C)C(=C(F)F)C(F)(F)F | 28.6 µM (inactive) | 31.5 µM (inactive) | 27 µM (inactive) | 19.8 µM (inactive) | 24.5 µM (inactive) | 23.8 µM (inactive) | 36.6 µM (inactive) | 27.6 µM (inactive) | 25.4 µM (inactive) | 22.8 µM (inactive) | 16 µM (inactive) | 35.5 µM (inactive) | 16.8 µM (inactive) | 22.1 µM (inactive) | 30.4 µM (inactive) | 34.6 µM (inactive) | 25.2 µM (inactive) | – | 25.2 µM (inactive) |
| Cc1ccc(S(=O)(=O)C2=Cc3ccccc3C2(O)c2ccccc2)cc1 (configuration not stated) | 22.7 µM (inactive) | > 10 µM (inactive) | 19.7 µM (inactive) | 15.7 µM (inactive) | 24 µM (inactive) | 22.8 µM (inactive) | – | 24.9 µM (inactive) | – | 30.8 µM (inactive) | 15.4 µM (inactive) | 60.4 µM (inactive) | 13.5 µM (inactive) | 25.1 µM (inactive) | 22.6 µM (inactive) | 25.5 µM (inactive) | 27.2 µM (inactive) | 24 µM (inactive) | > 10 µM (inactive) |
| CCOc1ccc(C(=O)/C=C2/Nc3ccccc3N/C2=C/C(=O)c2ccc(OCC)cc2)cc1 | 85.3 µM (inactive) | > 100 µM (inactive) | > 100 µM (inactive) | 29.7 µM (inactive) | > 100 µM (inactive) | – | > 100 µM (inactive) | > 100 µM (inactive) | > 100 µM (inactive) | > 100 µM (inactive) | > 100 µM (inactive) | > 100 µM (inactive) | > 100 µM (inactive) | > 100 µM (inactive) | 37.6 µM (inactive) | – | > 100 µM (inactive) | > 100 µM (inactive) | > 100 µM (inactive) |
| O=C1CCCc2cc3c(cc21)CC1(Cc2ccccc2C1)C3 | – | 3.48 µM (inactive) | 2.8 µM (inactive) | – | 3.89 µM (inactive) | 6.28 µM (inactive) | 3.9 µM (inactive) | 9.14 µM (inactive) | 10.8 µM (inactive) | 1.91 µM (inactive) | 15 µM (inactive) | 7.66 µM (inactive) | 4.33 µM (inactive) | 1.86 µM (inactive) | 7.59 µM (inactive) | 6 µM (inactive) | – | – | 6.04 µM (inactive) |
| CCOC(=O)c1c(N)n(-c2ccccc2)c(=S)n(-c2ccccc2)c1=O | > 100 µM (inactive) | > 100 µM (inactive) | > 100 µM (inactive) | > 100 µM (inactive) | – | > 100 µM (inactive) | > 100 µM (inactive) | – | > 100 µM (inactive) | > 100 µM (inactive) | > 100 µM (inactive) | > 100 µM (inactive) | > 100 µM (inactive) | > 100 µM (inactive) | > 100 µM (inactive) | – | > 100 µM (inactive) | > 100 µM (inactive) | – |
| CC1=C(c2ccccc2)NC(=S)C(C)C(c2ccccc2)=N1 (configuration not stated) | 34.4 µM (inactive) | 28.8 µM (inactive) | 32.4 µM (inactive) | 12.1 µM (inactive) | 16.3 µM (inactive) | 83.4 µM (inactive) | 27 µM (inactive) | 42.3 µM (inactive) | – | 18.7 µM (inactive) | – | > 100 µM (inactive) | – | 10.6 µM (inactive) | – | 22.8 µM (inactive) | 27.5 µM (inactive) | 23.7 µM (inactive) | > 100 µM (inactive) |
| COC(=O)c1ccc2c(c1)CC1(C2)Cc2ccc3c(c2C1)CCC3 (configuration not stated) | – | 20.2 µM (inactive) | 17.5 µM (inactive) | 19.3 µM (inactive) | 47.8 µM (inactive) | 69.2 µM (inactive) | 23.3 µM (inactive) | 51.3 µM (inactive) | 0.855 µM (active) | 3.25 µM (inactive) | – | > 100 µM (inactive) | 0.574 µM (active) | 6.64 µM (inactive) | 37.9 µM (inactive) | – | 93.8 µM (inactive) | – | 29.9 µM (inactive) |
| O=C1CCCCC(=O)OC2(CCCCC2=O)CC1 (configuration not stated) | > 100 µM (inactive) | > 100 µM (inactive) | > 100 µM (inactive) | > 100 µM (inactive) | > 100 µM (inactive) | > 100 µM (inactive) | > 100 µM (inactive) | – | > 100 µM (inactive) | > 100 µM (inactive) | > 100 µM (inactive) | > 100 µM (inactive) | > 100 µM (inactive) | > 100 µM (inactive) | – | > 100 µM (inactive) | > 100 µM (inactive) | > 100 µM (inactive) | > 100 µM (inactive) |
| c1cc2c(c(NC3=NCCO3)c1)CCC2 | > 100 µM (inactive) | > 100 µM (inactive) | > 100 µM (inactive) | > 100 µM (inactive) | > 100 µM (inactive) | > 100 µM (inactive) | > 100 µM (inactive) | > 100 µM (inactive) | 94.4 µM (inactive) | 85.7 µM (inactive) | > 100 µM (inactive) | > 100 µM (inactive) | > 100 µM (inactive) | > 100 µM (inactive) | 78.2 µM (inactive) | > 100 µM (inactive) | > 100 µM (inactive) | – | > 100 µM (inactive) |
| C=C1C(C[C@@H]2O[C@H]3C[C@H]4O[C@@]5(C[C@@H]6O[C@]7(C[C@H](C)[C@@H]8O[C@@H]9CC(C(O)CO)O[C@@H]9C[C@@H]8O7)C[C@H](C)[C@@H]6O5)C[C@H]4O[C@H]3[C@H](C)[C@H]2O)O[C@@H](CC[C@@H]2O[C@@H](CC[C@@]34CC5O[C@H]6C(O[C@H]7CC[C@H](CC(=O)OC)O[C@@H]7[C@@H]6O3)[C@H]5O4)CC2=C)C[C@H]1C (some centres not stated) | < 0.0001 µM (active) | < 0.0001 µM (active) | – | < 0.0001 µM (active) | – | 0.000209 µM (active) | < 0.0001 µM (active) | 0.000405 µM (active) | – | < 0.0001 µM (active) | – | 0.00142 µM (active) | 0.000124 µM (active) | < 0.0001 µM (active) | < 0.0001 µM (active) | 0.00466 µM (active) | 0.000184 µM (active) | < 0.0001 µM (active) | 0.000396 µM (active) |
| CCN(CC)CCC(=O)/C=C/c1ccc(Cl)c(Cl)c1 | 4.94 µM (inactive) | > 10 µM (inactive) | – | 2.45 µM (inactive) | – | 4.21 µM (inactive) | 3.36 µM (inactive) | > 10 µM (inactive) | > 10 µM (inactive) | 3.21 µM (inactive) | 8.55 µM (inactive) | 7.93 µM (inactive) | 3.52 µM (inactive) | 3.68 µM (inactive) | – | 1.99 µM (inactive) | 3.05 µM (inactive) | 4.49 µM (inactive) | > 10 µM (inactive) |
| COC(=O)C(CO)NC(=O)C(CSC(c1ccccc1)(c1ccccc1)c1ccccc1)NC(=O)OCc1ccccc1 (configuration not stated) (Cbz-Cys(Trt)-Ser-OMe; configuration not given here) | 8.81 µM (inactive) | – | 11.4 µM (inactive) | 0.0398 µM (active) | 12.1 µM (inactive) | 14.5 µM (inactive) | 14.8 µM (inactive) | 16 µM (inactive) | 15.2 µM (inactive) | 15.2 µM (inactive) | 16.9 µM (inactive) | 17.7 µM (inactive) | 19.4 µM (inactive) | 15.3 µM (inactive) | 18.5 µM (inactive) | 16.8 µM (inactive) | 17.7 µM (inactive) | – | 17.3 µM (inactive) |
